US11667602B2, “Compounds and their use” (AstraZeneca AB, priority 2020, dated 2023)
≈ marks a conversion by molar mass, not a printed value.

Experiments:
[1] = Human Plasma Protein Binding (Test B); type: in vitro ADME; details: fraction unbound (fu)
Summary of the method: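 Human plasma protein binding run per the published Wernevik et al. (2020) integrated DMPK panel protocol. Values are fraction unbound (fu, % free); repeat runs averaged arithmetically.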

[2] = Human Liver Microsomal Stability (Test C); type: in vitro ADME; details: for microsomal CLint: human, liver microsomes
Summary of the method: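 Human liver microsome incubation per the Wernevik et al. integrated DMPK panel protocol. Intrinsic clearance reported as CLint in μl/min/mg protein, averaged arithmetically over repeat runs.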

[3] = Human Hepatocyte Stability (Test D); type: in vitro ADME; details: geometric mean if run multiple times; for hepatocyte CLint at 1 µM: human, cryopreserved pooled human hepatocytes (LiverPool 10-Donor)
Summary of the method: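 Pooled 10-donor cryopreserved human hepatocytes (≥80% viable) in L-15 medium at 0.25×10^6 cells per 0.25 mL well. Compound added from 100 μM acetonitrile solution; incubated at 37 °C with shaking, acetonitrile-quenched, LC-MS analysed. Clint (μL/min/10^6 cells) from ln % parent vs time slope; geometric mean of repeat runs.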

[4] = Rat Hepatocyte Stability (Test E); type: in vitro ADME; details: geometric mean if run multiple times; for hepatocyte CLint: rat, hepatocytes
Summary of the method: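 Run per the published AstraZeneca-type rat hepatocyte stability protocol (Wernevik et al. panel). Values are mean intrinsic clearance, Clint in μl/min/10^6 cells; geometric mean used for repeated runs.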

Solubility (Test F) = type: physicochemical; details: arithmetic mean if run multiple times
Method: The assay was conducted according to the Solubility Assay described in pages 164-167 of Wernevik, J. et al., “A Fully Integrated Assay Panel for Early Drug Metabolism and Pharmacokinetics Profiling”, Assay and Drug Development Technologies, 2020, 18(4), 157-179. Data are reported in Table 36 as solubility ([…]. Where the assay was run multiple times for the same compound, the arithmetic mean is reported.

human RXFP1 = molecular target: T1, human RXFP1 (Homo sapiens, UniProt Q9HBX9); assay: RXFP1 Hu cAMP (Test A); type: cell-based; design: expressed in transfected cells; host or cells: Jump-In T-REx CHO-K1 cells (ThermoFisher), induced with 10 ng/ml doxycycline for 24 h; details: RXFP1 Hu cAMP; for EC50: read-out: Test A EC50
T1 sequence (Q9HBX9 1-757): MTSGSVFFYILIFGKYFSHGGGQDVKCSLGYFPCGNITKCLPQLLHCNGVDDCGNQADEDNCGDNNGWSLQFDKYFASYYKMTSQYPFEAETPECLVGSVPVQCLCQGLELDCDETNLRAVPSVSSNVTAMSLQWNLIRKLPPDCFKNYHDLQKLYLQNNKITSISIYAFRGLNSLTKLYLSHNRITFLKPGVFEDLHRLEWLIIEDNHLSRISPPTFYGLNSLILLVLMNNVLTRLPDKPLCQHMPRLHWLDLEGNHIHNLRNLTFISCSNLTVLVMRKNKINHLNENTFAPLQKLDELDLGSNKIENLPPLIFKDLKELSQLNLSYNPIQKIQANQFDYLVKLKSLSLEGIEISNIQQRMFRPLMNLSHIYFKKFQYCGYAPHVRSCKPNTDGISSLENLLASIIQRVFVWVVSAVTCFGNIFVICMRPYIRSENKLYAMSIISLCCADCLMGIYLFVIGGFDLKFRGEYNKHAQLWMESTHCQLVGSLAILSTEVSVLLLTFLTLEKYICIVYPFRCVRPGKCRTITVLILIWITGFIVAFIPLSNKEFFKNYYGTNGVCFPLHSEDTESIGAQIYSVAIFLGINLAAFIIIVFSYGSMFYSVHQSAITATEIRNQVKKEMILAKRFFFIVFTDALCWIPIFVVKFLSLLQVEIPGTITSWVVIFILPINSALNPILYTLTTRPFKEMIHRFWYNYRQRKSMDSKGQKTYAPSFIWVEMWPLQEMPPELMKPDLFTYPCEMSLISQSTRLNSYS
Summary of the method: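 Competitive HTRF cAMP readout (2 h, room temperature) in CHO-K1 cells stably expressing human RXFP1, induced with 10 ng/ml doxycycline for 24 h; IBMX 0.5 mM final.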

Test B Human Plasma Protein Binding (% free) [1] [% free]	microsomal CLint [2] [µL/min/mg]	hepatocyte CLint at 1 µM [3] [µL/min/1e6 cells]	hepatocyte CLint [4] [µL/min/1e6 cells]	solubility (Solubility (Test F)) [µM]	Test A Sinf (human RXFP1) [%]	EC50 (human RXFP1) [nM]	Structure (SMILES)	Test C Human Liver Microsomal Stability Clint ([2]; human liver microsomes) [µL/min/mg]	Test D Human Hepatocyte Stability Clint ([3]; human hepatocytes) [μL/min/10^6 cells]	Test E Rat Hepatocyte Stability Clint ([4]; rat hepatocytes) [μL/min/10^6 cells]
1	21	7.2	11	36 (≈ 25.4 µg/mL)	112	470	COc1cc(F)c(-c2ccc(C[C@@H](C(=O)O)N(C)C)cc2)cc1C(=O)N[C@@H]1[C@H]2CC[C@H](C2)[C@@H]1C(=O)Nc1cccc(S(=O)(=O)C(F)(F)F)c1 (racemic) [Example 289, (S)-2-(Dimethylamino)-3-(2′-fluoro-4′-methoxy-5′-(((1RS,2SR,3RS,4SR)-3-((3-((trifluoromethyl)sulfonyl)phenyl)carbamoyl)bicyclo[2.2.1]heptan-2-yl)carbamoyl)-[1,1′-biphenyl]-4-yl)propanoic acid]			
<0.32	16	32	18	900 (≈ 571 µg/mL)	101	190	COc1cc(F)c(-c2ccc(C(=O)O)cc2)cc1C(=O)N[C@@H]1[C@H]2CC[C@H](C2)[C@@H]1C(=O)Nc1cccc(S(=O)(=O)C(F)(F)F)c1 [Example 250]			
3.4	190	30	52	2.5 (≈ 1.4 µg/mL)	97	810	COc1cc(F)c(O[C@H]2CC[C@@](C)(C(=O)O)CC2)cc1C(=O)N[C@@H]1[C@H]2CC[C@H](C2)[C@@H]1C(=O)NC(C(C)C)C(C)C [Example 40]			
1.7	65	30	35	> 1000	106	120	COc1cc(F)c(-c2ccc(CCC(=O)O)nc2)cc1C(=O)N[C@@H]1[C@H]2CC[C@H](C2)[C@@H]1C(=O)Nc1cccc(S(=O)(=O)C(F)(F)F)c1 [Example 258, 3-(5-(2-Fluoro-4-methoxy-5-(((1S,2R,3S,4R)-3-((3-((trifluoromethyl)sulfonyl)phenyl)carbamoyl)bicyclo[2.2.1]heptan-2-yl)carbamoyl)phenyl)pyridin-2-yl)propanoic acid]			
12	4.4	1.9	14	820 (≈ 493 µg/mL)	122	160	COc1cc(C#N)c(O[C@H]2CC[C@@](C)(C(=O)O)CC2)cc1C(=O)N[C@@H]1[C@H]2CC[C@H](C2)[C@@H]1C(=O)NCC(F)(F)C(F)(F)F [Example 102]			
3.8	27	4.8	22	830 (≈ 454 µg/mL)	103	20	CCC(C)(C)CNC(=O)[C@H]1[C@@H]2CC[C@@H](C2)[C@H]1NC(=O)c1cc(O[C@H]2CC[C@@](C)(C(=O)O)CC2)c(F)cc1OC [Example 37, (1S,4s)-4-(5-(((1S,2R,3S,4R)-3-((2,2-Dimethylbutyl)carbamoyl)bicyclo[2.2.1]heptan-2-yl)carbamoyl)-2-fluoro-4-methoxyphenoxy)-1-methylcyclohexane-1-carboxylic acid]			
3.5	20	3.4	8.2	880 (≈ 481 µg/mL)	115	75	COc1cc(F)c(O[C@H]2CC[C@@](C)(C(=O)O)CC2)cc1C(=O)N[C@@H]1[C@H]2CC[C@H](C2)[C@@H]1C(=O)NC12CC(F)(C1)C2 [Example 608]			
<0.070	12	5.7	7.5	460 (≈ 314 µg/mL)	108	0.49	COc1cc(F)c(O[C@H]2CC[C@@](C)(C(=O)O)CC2)cc1C(=O)NC1C2CCC(C2)C1C(=O)Nc1ccc(F)c(S(F)(F)(F)(F)F)c1 (single isomer, unassigned) [Example 520, (1R,4s)-4-(2-Fluoro-5-(((1S*,2S*,3R*,4R*)-3-((4-fluoro-3-(pentafluoro-λ6-sulfaneyl)phenyl)carbamoyl)bicyclo[2.2.1]heptan-2-yl)carbamoyl)-4-methoxyphenoxy)-1-methylcyclohexane-1-carboxylic acid]			
2.5	66	32	12	800 (≈ 447 µg/mL)	110	11	COc1cc(F)c(OC2CCC(C)(C(=O)O)CC2)cc1C(=O)NC1C2CCC(CC2)C1C(=O)NCC1(C)CCC1 (single isomer, unassigned) [Example 542, (1R,4s)-4-(2-Fluoro-4-methoxy-5-(((2S*,3R*)-3-(((1-methylcyclobutyl)methyl)carbamoyl)bicyclo[2.2.2]octan-2-yl)carbamoyl)phenoxy)-1-methylcyclohexane-1-carboxylic acid]			
<0.33	9.1	9.4	12	8 (≈ 5.2 µg/mL)	98	120	COc1cc(F)c(-c2cccc(C(=O)O)c2)cc1C(=O)N[C@H]1[C@@H](C(=O)Nc2ccc(F)c(S(=O)(=O)C(F)(F)F)c2)[C@@H]2C=C[C@H]1C2 (racemic) [Example 297]			
1.8	< 3	4.9	39	16 (≈ 8.44 µg/mL)	95	460	COc1cc(F)c(O[C@H]2CC[C@@](C)(C(=O)O)CC2)cc1C(=O)Nc1cnccc1C(=O)NCC1(C)CCC1 [Example 150, (1s,4s)-4-(2-Fluoro-4-methoxy-5-((4-(((1-methylcyclobutyl)methyl)carbamoyl)pyridin-3-yl)carbamoyl)phenoxy)-1-methylcyclohexane-1-carboxylic acid]			
<0.31	< 3	7.7	13	17 (≈ 11.1 µg/mL)	112	480	COc1cc(F)c(-c2ccc(F)c(C(=O)O)c2)cc1C(=O)N[C@H]1[C@@H](C(=O)Nc2cccc(S(=O)(=O)C(F)(F)F)c2)[C@@H]2C=C[C@H]1C2 (racemic) [Example 231]			

Structure (SMILES)	Test B Human Plasma Protein Binding (% free) [1] [% free]	microsomal CLint [2] [µL/min/mg]	hepatocyte CLint at 1 µM [3] [µL/min/1e6 cells]	hepatocyte CLint [4] [µL/min/1e6 cells]	solubility (Solubility (Test F)) [µM]	Test A Sinf (human RXFP1) [%]	EC50 (human RXFP1) [nM]	Test C Human Liver Microsomal Stability Clint ([2]; human liver microsomes) [µL/min/mg]	Test D Human Hepatocyte Stability Clint ([3]; human hepatocytes) [μL/min/10^6 cells]	Test E Rat Hepatocyte Stability Clint ([4]; rat hepatocytes) [μL/min/10^6 cells]
COc1cc(F)c(O[C@H]2CC[C@@](C)(C(=O)O)CC2)cc1C(=O)N[C@H]1C[C@@H](OC)C[C@H]1C(=O)Nc1cccc(S(=O)(=O)C(F)(F)F)c1 (stereo in doubt) [Example 523, (1R,4s)-4-(2-fluoro-4-methoxy-5-(((1S*,2R*,4S*)-4-methoxy-2-((3-((trifluoromethyl)sulfonyl)phenyl)carbamoyl)cyclopentyl)carbamoyl)phenoxy)-1-methylcyclohexane-1-carboxylic acid]	4				920 (≈ 621 µg/mL)	95	270	>300	49	34
